One assay relates to HGT-1 cells. Kind of assay: Guaifenesin-induced acid (proton) secretion in HGT-1 cells. To be noted: for change in proton secretory activity of HGT-1 cells compared to 10 mM guaifenesin alone: 30 μM co-incubated with 10 mM guaifenesin, from 10 min onwards. The assay is classed as cell-based, Human. An excerpt:
Human gastric tumour cell line 1 (HGT-1; Laboisse C. L.; Augeron C.; Couturier-Turpin M. H.; Gespach C.; Cheret A. M.; Potet F., Characterization of a newly established human gastric cancer cell line HGT-1 bearing histamine H2-receptors, Canc. Res., 1982, 42, 1541 to 1548) is a suitable screening tool for detecting the interaction of bitter agents and bitter modulating substances (Liszt, K. I.; Hans, J.; Ley, J. P.; Kock, E.; Somoza, V., Characterization of bitter compounds via modulation of proton secretion in human gastric parietal cells in culture, J. Agric. Food Chem., 2018, 66 (10), 2295-2300.). Therefore, the effect of hesperetin and phyllodulcin on guaifenesin-induced acid secretion in the HGT-1 cell line was determined to predict the modulation of guaifenesin-induced bitterness by hesperetin and phyllodulcin. To this aim, HGT-1 cells were cultured under standard conditions and passaged at ca. 80% confluence. […] HGT-1 cells were pre-loaded with (acetyloxy)methyl-3-(acetyloxy)-10-(dimethylamino)-3′-oxo-spiro[7H-benzo[c]xanthene-7,1′(3H)-isobenzofuran]-ar′-carboxylate and incubated in 130 mM NaCl 130, 4.7 mM KCl, 1.3 mM CaCl2), 1.2 mM MgSO4, 1.2 mM KH2PO4, 11.7 mM glucose, 10 mM HEPES 10, 20 μM 4,4′-Diisothiocyanatostilbene-2,2′-disulfonic acid disodium and 20 μM 5-(N-Ethyl-N-isopropyl)amiloride at pH 7.4. Fluorescence recordings were performed with an excitation wavelength of 488 nm and monitoring the emission wavelengths of 580 nm and 640 nm, respectively, each with a 20 nm bandwidth. […]
The data in Table 1 and Table 2 are presented as mean±SEM derived from 3 biological replicates and 6 to 9 technical replicates. Outliers were identified using the Nalimov test, statistical significance was tested one-way ANOVA with Tukey's range test for multiple comparisons and Bonferroni correction, establishing the threshold for significance at p<0.01. Accordingly, data are marked with *(p<0.007), **(p<0.001) or ***(p<0.0001). Control: untreated cells

The test system of assay [1] is guaifenesin-induced bitterness perception. Kind of assay: Sensory panel test of guaifenesin-induced bitterness perception (sip and spit, scale 0 to 100). The assay is classed as in vivo, human. To be noted: trained panel n=20 to 30. The protocol:
To verify the effect of hesperetin and phyllodulcin on guaifenesin-induced bitterness perception, an aqueous solution of 1.3 g/l guaifenesin (1) was tested against an aqueous solution containing 1.3 g/l guaifenesin and 100 mg/l hesperetin (2) or 7 mg/l phyllodulcin (3) or 100 mg/l homoeriodictyol as comparison (4). The test was conducted as a randomized comparison test in a trained sensory panel (n=20 to 30) via a sip and spit procedure. The panellists tasted both solutions in a blinded fashion and rated bitterness on a scale of 0 to 100.

A further assay concerns guaifenesin bitterness. To be noted: 200 ppm (200 mg/l, 0.2 mg/ml) HED against 13 mg/ml guaifenesin; cited from earlier work.
The mark [2] stands for this setting: 30 μM flavour compound co-incubated with 10 mM guaifenesin, time-point 0 min.
Setting [3] is: 30 μM flavour compound co-incubated with 10 mM guaifenesin, time-point 5 min.
[4] abbreviates: 30 μM flavour compound co-incubated with 10 mM guaifenesin, time-point 10 min.
The mark [5] stands for this setting: 30 μM flavour compound co-incubated with 10 mM guaifenesin, time-point 15 min.
[6] abbreviates: 30 μM flavour compound co-incubated with 10 mM guaifenesin, time-point 20 min.
Where [7] appears, read: 30 μM flavour compound co-incubated with 10 mM guaifenesin, time-point 25 min.
The mark [8] stands for this setting: 30 μM flavour compound co-incubated with 10 mM guaifenesin, time-point 30 min.
[9] abbreviates: 100 mg/l (racemic) in aqueous 1.3 g/l guaifenesin versus 1.3 g/l guaifenesin.

Values joined by “and” are separate entries in the source; they are usually repeats but may differ in a detail not shown here. Equal values may be shown once. Marks after values point to notes of the source that are not given here.

On to `COc1ccc([C@@H]2CC(=O)c3c(O)cc(O)cc3O2)cc1O` (racemic) [hesperetin, (2S)-/(2R)-5,7-dihydroxy-2-(3-hydroxy-4-methoxyphenyl)-4-chromanone], for which the “change in proton secretory activity of HGT-1 cells compared to 10 mM guaifenesin alone” value in the assay with HGT-1 cells is “significant decrease”. In addition, the “proton secretory activity (log 2 transformed ratio of treated versus untreated cells), mean” value in the assay with HGT-1 cells (setting [2]) is −0.132; with HGT-1 cells (setting [3]), 0.05735***; with HGT-1 cells (setting [4]), −0.04329*; in the assay on HGT-1 cells (setting [5]), 0.03955***; with HGT-1 cells (setting [6]) it was 0.002334***; in the assay with HGT-1 cells (setting [7]) it was 0.01577***. The “proton secretory activity (log 2 transformed ratio of treated versus untreated cells), mean” value with HGT-1 cells (setting [8]) was 0.02592***. The “Modulation versus control (relative difference in bitter ratings)” value in assay [1] (setting [9]) was −25%.
On to `COc1cc([C@@H]2CC(=O)c3c(O)cc(O)cc3O2)ccc1O` (racemic) [homoeriodictyol, (2S)-/(2R)-5,7-Dihydroxy-2-(4-hydroxy-3-methoxyphenyl)-4-chromanone, reference compound], for which the “Modulation versus control (relative difference in bitter ratings)” value in assay [1] (setting [9]) is given as −12%. Also, the “reduction in guaifenesin bitterness” value in the assay on guaifenesin bitterness is “about 40%”.
For the compound `COc1ccccc1OCC(O)CO` (stereo not drawn) [guaifenesin, 3-(2-methoxyphenoxy-)1,2-propanediol], the “proton secretory activity (log 2 transformed ratio of treated versus untreated cells), mean” value in the assay on HGT-1 cells (10 mM guaifenesin alone, time-point 0 min) was 0.2711 and 0.2596; in the assay with HGT-1 cells (10 mM guaifenesin alone, time-point 5 min), 0.2378 and 0.2475; in the assay on HGT-1 cells (10 mM guaifenesin alone, time-point 10 min), 0.2801 and 0.187; with HGT-1 cells (10 mM guaifenesin alone, time-point 15 min), 0.2178 and 0.2259; with HGT-1 cells (10 mM guaifenesin alone, time-point 20 min) it was 0.323 and 0.265; in the assay with HGT-1 cells (10 mM guaifenesin alone, time-point 25 min) it was 0.3953 and 0.1861. In addition, the “proton secretory activity (log 2 transformed ratio of treated versus untreated cells), mean” value with HGT-1 cells (10 mM guaifenesin alone, time-point 30 min) was 0.2706 and 0.2473.
With `COc1ccc([C@H]2Cc3cccc(O)c3C(=O)O2)cc1O` [phyllodulcin, (3S)-/(3R)-8-hydroxy-3-(3-hydroxy-4-methoxy-phenyl)isochroman-1-one], in the assay with HGT-1 cells, the “change in proton secretory activity of HGT-1 cells compared to 10 mM guaifenesin alone” value is given as “significant decrease”. The “proton secretory activity (log 2 transformed ratio of treated versus untreated cells), mean” value with HGT-1 cells (setting [2]) was −0.08165*; with HGT-1 cells (setting [3]) it was 0.0579***; with HGT-1 cells (setting [4]), 0.07294***; in the assay with HGT-1 cells (setting [5]), −0.04172; in the assay with HGT-1 cells (setting [6]), 0.08512*; with HGT-1 cells (setting [7]), −0.1469. Further, the “proton secretory activity (log 2 transformed ratio of treated versus untreated cells), mean” value with HGT-1 cells (setting [8]) is reported as 0.1433***. Further, in assay [1] (7 mg/l (98 weight %, 95 mol % enantiomeric purity) in aqueous 1.3 g/l guaifenesin versus 1.3 g/l guaifenesin), the “Modulation versus control (relative difference in bitter ratings)” value is recorded as −15%.
